Experimental data as given in patent publication US8946407B2, “Fructosylated mangiferin and preparation method therefor and use thereof” (priority 2011, dated 2015).

Legend:
dissolvability at 25° C. = format: physicochemical
Procedure: As determined, at 25° C., the dissolvability of monofructosyl-β-(2,6)-mangiferin is 350 g/L, and that of bifructosyl-β-(2,6)-mangiferin is 1200 g/L, respectively 3.5×103 times and 1.2×104 times that of mangiferin (0.1 g/L) under the same condition.

[1] = test system: Human chronic myelogenous leukemia cell strain K562; experiment: K562 cell toxicity test (MTT method); format: cell-based; conditions: for Average suppression rate (%) / OD value: 48 h; for Average suppression rate (%): K562; for OD value: K562, A490 MTT
Procedure: Human chronic myelogenous leukemia cell strain K562, purchased from the cell bank of Shanghai Cell Research Institute of Chinese Academy of Sciences; mangiferin, purchased from Nanjing Zelang Medical Science and Technology Co., Ltd.; monofructosyl-β (2,6)-mangiferin is prepared with the method described in this invention, with purity over 99% as determined by high performance liquid chromatography. Drug liquid and its storage: weigh 8.44 mg mangiferin powder and dissolve it in 2 mL DMSO to prepare it into 10 mmol/L mangiferin; weigh 11.68 mg monofructosyl-β (2,6)-mangiferin powder and dissolve it in 2 mL DMSO to prepare it into 10 mmol/L monofructosyl-β (2,6)-mangiferin; they are filtered with a 0.22 μm filter, packed in 1000 μL/doff and stored at −20° C., meanwhile, high concentration DMSO is filtered with a 0.22 μm filter for use as control. The K-562 cells are cultured in RPMI-1640 complete culture medium containing inactivated calf serum at volume fraction of 10%, 100 U penicillin and streptomycin, in an incubating box at 37° C., with 5% CO2 and at saturated humidity. Take K-562 cells in logarithmic growing phase, adjust its concentration to 1×10^5/mL, and inoculate them in a 96-hole culture plate, each hole with 90 μL of suspended cell liquid, the experimental group is treated with mangiferin and monofructosyl-β (2,6)-mangiferin at different end concentration (1, 5, 10, 20, 50, 100, 150 and 200 μmol/L), with 10 μL in each hole, the DMSO solvent control group is added with 20 μL PBS containing the corresponding drug solvent, and the blank group is added with 20 μL PBS. For each drug concentration, 6 repeating holes are provided. The culture plate is put back into the cell culture box, add 20 μL MTT (5 mg/mL) solution after 48 h, and after further incubation of 4 h in the culture box, add triple liquid 100 μL into each hole, put it still overnight to allow full dissolution of crystal. Vibrate it with oscillator for 20 min and determine the light absorption at 490 nm with a fully automatic ELISA instrument, and calculate the average suppression rate, the suppression rate (%)=(control group A490−test group A490)/control group A490), the experiment was repeated three times. Relevant analysis and Student t tests in Microsoft Excel 2003 were used, and data are presented in.

Compound | dissolvability (dissolvability at 25° C.) [g/L] | Average suppression rate (%) ([1]; 1 μmol/L) | OD value ([1]; 1 μmol/L) | Average suppression rate (%) ([1]; 5 μmol/L) | OD value ([1]; 5 μmol/L) | Average suppression rate (%) ([1]; 10 μmol/L) | OD value ([1]; 10 μmol/L) | Average suppression rate (%) ([1]; 20 μmol/L) | OD value ([1]; 20 μmol/L) | Average suppression rate (%) ([1]; 50 μmol/L) | OD value ([1]; 50 μmol/L) | Average suppression rate (%) ([1]; 100 μmol/L) | OD value ([1]; 100 μmol/L) | Average suppression rate (%) ([1]; 150 μmol/L) | OD value ([1]; 150 μmol/L) | Average suppression rate (%) ([1]; 200 μmol/L) | OD value ([1]; 200 μmol/L) | effect on K562 cell proliferation (in words) ([1]; after acting for 48 h, MTT method)
bifructosyl-β-(2,6)-mangiferin | 1200 | – | – | – | – | – | – | – | – | – | – | – | – | – | – | – | – | –
monofructosyl-β-(2,6)-mangiferin | 350 | 4.53 | 0.982 ± 0.039 | 8.79 | 0.938 ± 0.102 | 8.19 | 0.944 ± 0.053 | 8.56 | 0.941 ± 0.040 | 8.87 | 0.938 ± 0.041 | 23.19 | 0.790 ± 0.098 | 36.53 | 0.653 ± 0.026 | 41.48 | 0.602 ± 0.021 | can markedly suppress the proliferation
O=c1c2cc(O)c(O)cc2oc2cc(O)c([C@@H]3O[C@H](CO)[C@@H](O)[C@H](O)[C@H]3O)c(O)c12 [mangiferin] | – | 7.74 | 0.952 ± 0.034 | 8.39 | 0.945 ± 0.041 | 10.75 | 0.921 ± 0.036 | 3.52 | 0.995 ± 0.086 | −3.9 | 1.096 ± 0.143 | −16.08 | 1.198 ± 0.048 | −10.61 | 1.141 ± 0.049 | −14.56 | 1.182 ± 0.175 | –
